# Data as given in ChEMBL document CHEMBL1201862, “PubChem BioAssay data set” (2004).
#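 Test compounds were applied to cells in 96-well plates for 48 hours at 5 doses. Here, GI50 denotes the concentration required for 50% inhibition of growth.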 The source made the active and inactive calls. Cut-off read from the data, not from the text of the source: active = GI50 up to about 1.1 µM and inactive = higher.
# How the values were obtained:
# Assay in all cases: NCI-60 cell line screen, 48 h
# [1] = test system: 786-0
# [2] = test system: A498
# [3] = test system: A549
# [4] = test system: ACHN
# [5] = test system: BT-549
# [6] = test system: CAKI-1
# [7] = test system: CCRF-CEM
# [8] = test system: COLO 205
# [9] = test system: DU-145
# [10] = test system: EKVX
# [11] = test system: HCC 2998
# [12] = test system: HCT-116
# [13] = test system: HCT-15
# [14] = test system: HL-60
# [15] = test system: HOP-62
# [16] = test system: HOP-92
# [17] = test system: HT-29
# [18] = test system: Hs-578T
# [19] = test system: IGROV-1
# [20] = test system: K562
# [21] = test system: KM12
# [22] = test system: LOX IMVI
# [23] = test system: M14
# [24] = test system: MCF7
# [25] = test system: MDA-MB-231
# [26] = test system: MDA-MB-435
# [27] = test system: MDA-N
# [28] = test system: MOLT-4
# [29] = test system: Malme-3M
# [30] = test system: NCI-H226
# [31] = test system: NCI-H23
# [32] = test system: NCI-H460
# [33] = test system: NCI-H522
# [34] = test system: NCI/ADR-RES
# [35] = test system: OVCAR-3
# [36] = test system: OVCAR-4
# [37] = test system: OVCAR-5
# [38] = test system: OVCAR-8
# [39] = test system: PC-3
# [40] = test system: RPMI-8226
# [41] = test system: RXF 393
# [42] = test system: SF-268
# [43] = test system: SF-295
# [44] = test system: SF-539
# [45] = test system: SK-MEL-28
# [46] = test system: SK-MEL-2
# [47] = test system: SK-MEL-5
# [48] = test system: SK-OV-3
# [49] = test system: SN12C
# [50] = test system: SNB-19
# [51] = test system: SNB-75
# [52] = test system: SR
# [53] = test system: SW-620
# [54] = test system: T47D
# [55] = test system: TK-10
# [56] = test system: U-251
# [57] = test system: UACC-257
# [58] = test system: UACC-62
# [59] = test system: UO-31
# [60] = test system: KM-20L2
structure (smiles),measurement,setting,value
C=C1C(=O)O[C@H]2C[C@@]3(C)[C@H](O)CCC(=C)[C@@H]3[C@@H](OC(C)=O)[C@H]12,GI50,[1],5.85 µM (inactive)
same,GI50,[2],17.8 µM (inactive)
same,GI50,[3],14.7 µM (inactive)
same,GI50,[4],3.53 µM (inactive)
same,GI50,[5],7.33 µM (inactive)
same,GI50,[6],1.48 µM (inactive)
same,GI50,[7],1 µM (active)
same,GI50,[8],0.953 µM (active)
same,GI50,[9],10.9 µM (inactive)
same,GI50,[10],15.5 µM (inactive)
same,GI50,[11],15.1 µM (inactive)
same,GI50,[12],3.66 µM (inactive)
same,GI50,[13],1.85 µM
same,GI50,[14],2.19 µM (inactive)
same,GI50,[15],16.4 µM (inactive)
same,GI50,[16],2.71 µM (inactive)
same,GI50,[17],5.92 µM (inactive)
same,GI50,[18],14.3 µM (inactive)
same,GI50,[19],14.1 µM (inactive)
same,GI50,[20],2.63 µM (inactive)
same,GI50,[21],16.4 µM (inactive)
same,GI50,[22],5.43 µM (inactive)
same,GI50,[23],5.9 µM (inactive)
same,GI50,[24],1.51 µM (inactive)
same,GI50,[25],16.1 µM (inactive)
same,GI50,[26],15.5 µM (inactive)
same,GI50,[27],4.31 µM (inactive)
same,GI50,[28],3.13 µM (inactive)
same,GI50,[29],1.45 µM (inactive)
same,GI50,[30],15.2 µM (inactive)
same,GI50,[31],10.7 µM (inactive)
same,GI50,[32],13.1 µM (inactive)
same,GI50,[33],1.73 µM (inactive)
same,GI50,[34],21.8 µM (inactive)
same,GI50,[35],12.3 µM (inactive)
same,GI50,[36],4.85 µM (inactive)
same,GI50,[37],3.27 µM (inactive)
same,GI50,[38],18.7 µM (inactive)
same,GI50,[39],16.5 µM (inactive)
same,GI50,[40],5 µM (inactive)
same,GI50,[41],3.56 µM (inactive)
same,GI50,[42],19.2 µM (inactive)
same,GI50,[43],18.9 µM (inactive)
same,GI50,[44],0.409 µM (active)
same,GI50,[45],20 µM (inactive)
same,GI50,[46],15.9 µM (inactive)
same,GI50,[47],12.1 µM (inactive)
same,GI50,[48],30.2 µM (inactive)
same,GI50,[49],7.83 µM (inactive)
same,GI50,[50],12.9 µM (inactive)
same,GI50,[51],13.1 µM (inactive)
same,GI50,[52],2.22 µM (inactive)
same,GI50,[53],4.85 µM (inactive)
same,GI50,[54],4.65 µM (inactive)
same,GI50,[55],6.15 µM (inactive)
same,GI50,[56],20.2 µM (inactive)
same,GI50,[57],15.4 µM (inactive)
same,GI50,[58],15.9 µM (inactive)
same,GI50,[59],13.5 µM (inactive)
CN(C)c1ccc(/C=C2/SC(=S)NC2=O)cc1,GI50,[1],> 100 µM (inactive)
same,GI50,[2],> 100 µM (inactive)
same,GI50,[3],> 100 µM (inactive)
same,GI50,[4],> 100 µM (inactive)
same,GI50,[5],> 100 µM (inactive)
same,GI50,[6],> 100 µM (inactive)
same,GI50,[7],> 100 µM (inactive)
same,GI50,[8],> 100 µM (inactive)
same,GI50,[9],> 100 µM (inactive)
same,GI50,[10],> 100 µM (inactive)
same,GI50,[11],> 100 µM (inactive)
same,GI50,[12],33.2 µM (inactive)
same,GI50,[13],> 100 µM
same,GI50,[14],> 100 µM (inactive)
same,GI50,[15],52.2 µM (inactive)
same,GI50,[16],> 100 µM (inactive)
same,GI50,[17],> 100 µM (inactive)
same,GI50,[18],> 100 µM (inactive)
same,GI50,[19],> 100 µM (inactive)
same,GI50,[20],> 100 µM (inactive)
same,GI50,[21],50.7 µM (inactive)
same,GI50,[22],> 100 µM (inactive)
same,GI50,[23],> 100 µM (inactive)
same,GI50,[24],> 100 µM (inactive)
same,GI50,[25],90.8 µM (inactive)
same,GI50,[26],> 100 µM (inactive)
same,GI50,[27],> 100 µM (inactive)
same,GI50,[28],> 100 µM (inactive)
same,GI50,[29],> 100 µM (inactive)
same,GI50,[30],> 100 µM (inactive)
same,GI50,[31],> 100 µM (inactive)
same,GI50,[32],> 100 µM (inactive)
same,GI50,[33],> 100 µM (inactive)
same,GI50,[34],> 100 µM (inactive)
same,GI50,[35],> 100 µM (inactive)
same,GI50,[36],> 100 µM (inactive)
same,GI50,[37],21.9 µM (inactive)
same,GI50,[38],> 100 µM (inactive)
same,GI50,[39],> 100 µM (inactive)
same,GI50,[40],> 100 µM (inactive)
same,GI50,[41],> 100 µM (inactive)
same,GI50,[42],> 100 µM (inactive)
same,GI50,[43],> 100 µM (inactive)
same,GI50,[44],> 100 µM (inactive)
same,GI50,[45],> 100 µM (inactive)
same,GI50,[46],> 100 µM (inactive)
same,GI50,[47],> 100 µM (inactive)
same,GI50,[48],29.1 µM (inactive)
same,GI50,[49],> 100 µM (inactive)
same,GI50,[50],> 100 µM (inactive)
same,GI50,[51],95.3 µM (inactive)
same,GI50,[52],> 100 µM (inactive)
same,GI50,[53],> 100 µM (inactive)
same,GI50,[54],> 100 µM (inactive)
same,GI50,[55],21.2 µM (inactive)
same,GI50,[56],61.7 µM (inactive)
same,GI50,[57],> 100 µM (inactive)
same,GI50,[58],> 100 µM (inactive)
same,GI50,[59],> 100 µM (inactive)
COCCO [2-METHOXYETHANOL],GI50,[2],> 100 µM (inactive)
same,GI50,[3],> 100 µM (inactive)
same,GI50,[6],> 100 µM (inactive)
same,GI50,[8],> 100 µM (inactive)
same,GI50,[10],> 100 µM (inactive)
same,GI50,[11],> 100 µM (inactive)
same,GI50,[12],> 100 µM (inactive)
same,GI50,[13],> 100 µM
same,GI50,[14],> 100 µM (inactive)
same,GI50,[15],> 78.2 µM (inactive)
same,GI50,[16],> 100 µM (inactive)
same,GI50,[17],> 100 µM (inactive)
same,GI50,[19],> 100 µM (inactive)
same,GI50,[20],> 100 µM (inactive)
same,GI50,[60],> 100 µM (inactive)
same,GI50,[21],> 100 µM (inactive)
same,GI50,[22],> 100 µM (inactive)
same,GI50,[24],> 100 µM (inactive)
same,GI50,[28],> 100 µM (inactive)
same,GI50,[29],> 100 µM (inactive)
same,GI50,[30],> 100 µM (inactive)
same,GI50,[31],> 100 µM (inactive)
same,GI50,[32],> 100 µM (inactive)
same,GI50,[33],> 100 µM (inactive)
same,GI50,[34],> 100 µM (inactive)
same,GI50,[35],> 100 µM (inactive)
same,GI50,[36],> 100 µM (inactive)
same,GI50,[37],> 100 µM (inactive)
same,GI50,[38],> 100 µM (inactive)
same,GI50,[40],> 100 µM (inactive)
same,GI50,[41],> 100 µM (inactive)
same,GI50,[42],> 100 µM (inactive)
same,GI50,[43],> 100 µM (inactive)
same,GI50,[44],> 100 µM (inactive)
same,GI50,[45],> 100 µM (inactive)
same,GI50,[46],> 100 µM (inactive)
same,GI50,[47],> 100 µM (inactive)
same,GI50,[48],> 100 µM (inactive)
same,GI50,[49],> 100 µM (inactive)
same,GI50,[50],> 100 µM (inactive)
same,GI50,[51],> 64.6 µM (inactive)
same,GI50,[53],> 100 µM (inactive)
same,GI50,[56],> 100 µM (inactive)
same,GI50,[57],> 100 µM (inactive)
same,GI50,[58],> 100 µM (inactive)
same,GI50,[59],> 87.3 µM (inactive)
